≈ marks a conversion by molar mass, not a printed value. Like-named read-outs stand apart in the source and are kept apart here.
What was measured:
[1] = test system: mPTP; experiment: mPTP activity assay in isolated rat brain mitochondria; assay type: biochemical; details: isolated rat brain mitochondria
Method: mPTP activity was measured in brain mitochondria freshly isolated from female Sprague Dawley (250 to 300 gram) rats. Anaesthetised rats were perfused in-situ with ˜40 ml cold Dulbecco's Phosphate Buffered Saline (DPBS), then brains dissected and transferred into 30 ml Isolation Buffer (225 mM mannitol, 75 mM sucrose, 1 mM EGTA, adjusted to pH 7.4 with 1 M NaOH). The brain was minced using tweezers and a scalpel into ˜5 mm pieces then transferred into a 50 ml Potterton Dounce homogenization tube on ice containing 10 ml ice-cold isolation buffer (as above with addition of Complete Protease inhibitor; 1 tablet per 50 ml buffer).
Homogenisation was carried out using a […] pestle at 1800 rpm. The slurry was centrifuged at 2000 g for 10 min at 4° C., then the supernatant centrifuged at 12,000 g for 9 min. The pellet was resuspended with a dounce homogeniser in isolation buffer as above but with the addition of 0.02% digitonin, centrifuged at 12,000 g for 11 min and finally resuspended in 5 ml modified isolation buffer (as above but with EGTA reduced to 0.1 mM).
Test compounds were prepared in 384 well polypropylene assay plates as described above for the liver mitochondria assay. A stock mitochondria/Fluo5N assay solution was prepared in 5.6 ml assay buffer (120 mM mannitol, 40 mM MOPS, 5 mM KH2PO4, 60 mM KCl, 10 mM pyruvate, 2 mM malate, 2 mM MgCl2, 20 μM ADP, 1.26 μM oligomycin A, adjusted to pH 7.4) supplemented with Fluo5N pentapotassium salt (2 μM) and 1 ml mitochondria suspension, then transferred (15 μl) into the assay plate containing test compounds and incubated for 10 min at RT. Assay plates were then transferred to a FLIPR Tetra plate reader (Molecular Devices). Dye fluorescence was then measured every 3 sec for a total of 10 min. After 12 sec, a 2.5 μl bolus of Ca2+ (75 μM) was added from a source plate containing 675 μM CaCl2) in FLIPR assay buffer. IC50 values for test compounds were calculated using the fluorescence value collected at the 10 min timepoint with % inhibition calculated using the DMSO control and cyclosporin A values at […].

[2] = test system: mPTP; experiment: mPTP activity (Ca2+ retention) assay in isolated rat liver mitochondria; assay type: biochemical; details: for mPTP Rat liver pIC50: isolated rat liver mitochondria, average value from multiple experiments (n ≥ 2)
How it was run: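 Freshly isolated female Sprague Dawley rat liver mitochondria were energised with succinate and rotenone in pH 7.4 buffer with Fluo5N, then pre-incubated 10 min at RT with compound (30 μM to 1 nM final) before a 75 μM CaCl2 bolus. The IC50 used 10-min fluorescence, normalised to DMSO and 5 μM cyclosporin A.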

[3] = PBS and FaSSIF solubility; assay type: physicochemical; details: kinetic from dmso stock
Method: Test compounds were prepared as 10 mM stocks in DMSO and 15 μl samples transferred in duplicate into 1.5 mL glass flat bottom vials (BioTech Solutions). Fasted state simulated intestinal fluid (FaSSIF) or PBS (pH 7.4) was added to each vial to final volume of 500 μl. One PTFE encapsulated stir stick (V&P Scientific) was placed in each vial before sealing with PTFE/SIL plugs (BioTech Solutions). Vials were shaken at 1100 rpm for 2 hr at 25° C. Samples were then filtered through MultiScreen Solvinert filter plates (Millipore) via vacuum filtration. Aliquots of filtrate (5 μl) plus 5 μl DMSO were diluted in 490 μl 50% acetonitrile in water containing internal standard. The filtrate was analysed and quantified against a standard of known concentration using LC-MS/MS. Solubility values of the test compound and control compound were calculated as follows: […]

[4] = Hepatocyte clearance assay, rat; assay type: in vitro ADME; details: cryopreserved primary rat hepatocytes, average value from two experiments, read-out: Rat heps Clint
Method: (§1) In vitro clearance studies were performed in primary rat and human hepatocytes (BiolVT). Vials of cryopreserved rat or human hepatocytes were thawed in a 37° C. water bath for 2 min. Cells were transferred into thawing medium (Williams' Medium E containing 30% Percoll, 1×GlutaMAX-1, 15 mM HEPES, 5% fetal bovine serum (FBS), 4 μg/ml insulin, 1 μM dexamethasone), centrifuged at 100 g for 10 min then resuspended in culture medium (Leibovitz's L-15 Medium) at a concentration of 0.5×10^6 viable cells/mL (number of viable cells assessed using AO/PI staining). Hepatocytes (198 μL) were transferred into wells of a 96-well non-coated plate and placed in a 37° C. incubator for 10 min. Test compound solutions were prepared from 10 mM stocks in DMSO, diluted to 100 μM in 50% (v/v in water) acetonitrile. Test compound samples (2 μl) were added to each well of hepatocytes and incubated at 37° C. Samples (25 μl) were collected at t=0, 15, 30, […] and 120 min, mixed with 6 volumes (150 μl) of acetonitrile containing internal standard (100 nM alprazolam, 200 nM caffeine and 100 nM tolbutamide), vortexed for 5 min and centrifuged for 45 min at 3220 g. An aliquot of supernatant (100 μL) was diluted with 100 μL ultra-pure water, and the mixture was used for LC/MS/MS analysis. All incubations were performed in duplicate. Peak areas were determined from extracted ion chromatograms. The slope value, k, was determined by linear regression of the natural logarithm of the remaining percentage of the parent drug vs. incubation time curve. The in vitro half-life (in vitro t½) was determined from the slope value: in vitro t½=0.693/k. Conversion of the in vitro t½ (in min) into the in vitro intrinsic clearance (in vitro CLint, in μL/min/1×10^6 cells) was done using the following equation (mean of duplicate determinations):
(§2) [formula] • V=incubation volume (0.2 mL) • N=number of hepatocytes per well (0.1×10^6 cells).

[5] = Hepatocyte clearance assay, human; assay type: in vitro ADME; details: cryopreserved primary human hepatocytes, average value from two experiments, read-out: Human heps Clint
Method: as §1, §2

[6] = biological target: CYP2D6 (Homo sapiens (Human), UniProt P10635); experiment: Cytochrome P450 CYP2D6 inhibition in human liver microsomes; assay type: in vitro ADME; details: probe dextromethorphan 2 µM (dextrorphan formation); 1 uM test compound, human liver microsomes; average value from two experiments; negative values = no effective inhibition
Chain of CYP2D6 (P10635 whole entry): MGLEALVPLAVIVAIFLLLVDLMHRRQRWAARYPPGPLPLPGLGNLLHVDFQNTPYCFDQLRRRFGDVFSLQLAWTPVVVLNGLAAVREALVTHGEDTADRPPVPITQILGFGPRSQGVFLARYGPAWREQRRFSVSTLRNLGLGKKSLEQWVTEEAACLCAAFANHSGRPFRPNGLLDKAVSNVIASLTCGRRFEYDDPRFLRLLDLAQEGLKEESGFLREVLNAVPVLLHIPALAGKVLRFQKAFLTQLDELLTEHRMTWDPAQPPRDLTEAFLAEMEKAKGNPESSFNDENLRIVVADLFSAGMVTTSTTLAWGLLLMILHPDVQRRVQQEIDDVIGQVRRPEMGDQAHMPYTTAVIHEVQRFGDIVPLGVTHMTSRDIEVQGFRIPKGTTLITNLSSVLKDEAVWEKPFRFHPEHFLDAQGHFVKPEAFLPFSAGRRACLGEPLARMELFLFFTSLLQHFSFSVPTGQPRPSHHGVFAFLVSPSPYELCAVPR
How it was run: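 Human liver microsomes (0.2 mg/mL) with 2 μM dextromethorphan in 100 mM PBS, test compound at 1 μM or 0.1-30 μM, 15 min preincubation then NADPH-started reaction for 20 min at 37° C, in duplicate. Dextrorphan formation by UPLC-MS/MS; IC50 from % decrease versus uninhibited control.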

[7] = fasted state simulated intestinal fluid (FaSSIF), fassif, Fasted state simulated intestinal fluid, 2 hr at 25° C., read-out: Solubility FaSSIF

Row | Compound | mPTP Rat brain pIC50 [1] | mPTP Rat liver pIC50 [2] | solubility at 2 h [3, 7] | hepatocyte CLint at 1 µM [4] | hepatocyte CLint at 1 µM [5] | inhibition at 20 min, 1 µM [6] | solubility at 2 h ([3]; aqueous buffer, PBS pH 7.4, 2 hr at 25° C., read-out: Solubility PBS (pH 7.4)) | activity in the rat liver mitochondria assay (in words) [2]
1 | COc1cc(C)c(NC(=O)/C=C/c2ccc3c(C#N)n[nH]c3c2)c(C)n1 [Example 94, (2E)-3-(3-cyano-1H-indazol-6-yl)-N-(6-methoxy-2,4-dimethylpyridin-3-yl)prop-2-enamide] | 7.4 | 7.5 | 43 µM (≈ 14.9 µg/mL) |  |  |  |  | 
2 | COc1cc(C)c(NC(=O)/C=C/c2cc3[nH]nc(F)c3cc2F)c(C)n1 [Example 97, (2E)-3-(3,5-difluoro-1H-indazol-6-yl)-N-(6-methoxy-2,4-dimethylpyridin-3-yl)prop-2-enamide] | 7.5 | 7.5 | 35 µM (≈ 12.5 µg/mL) |  |  |  |  | 
3 | COc1cc(C)c(NC(=O)/C=C/c2ccc3c(C)n[nH]c3c2)c(C)n1 [Example 91, (2E)-N-(6-methoxy-2,4-dimethylpyridin-3-yl)-3-(3-methyl-1H-indazol-6-yl)prop-2-enamide] | 7.2 | 6.2 | 86 µM (≈ 28.9 µg/mL) |  |  |  |  | 
4 | COc1cc(C)c(NC(=O)/C=C/c2ccc3c(F)n[nH]c3c2)c(C)n1 [Example 93, (2E)-3-(3-fluoro-1H-indazol-6-yl)-N-(6-methoxy-2,4-dimethylpyridin-3-yl) prop-2-enamide] | 6.8 | 7.6 | 151 µM (≈ 51.4 µg/mL) |  |  |  |  | 
5 | COc1cc(C)c(NC(=O)/C=C/c2cc3[nH]nc(C#N)c3cc2F)c(C)n1 [Example 98, (2E)-3-(3-cyano-5-fluoro-1H-indazol-6-yl)-N-(6-methoxy-2,4-dimethylpyridin-3-yl)prop-2-enamide] | 7.0 | 6.9 |  | 7 µL/min/1e6 cells | 9 µL/min/1e6 cells |  |  | 
6 | Cc1n[nH]c2cc(/C=C/C(=O)N[C@H]3c4ccccc4OC[C@@H]3C)ccc12 [Example 65c, (E)-3-(3-methyl-1H-indazol-6-yl)-N-((3R,4R)-3-methylchroman-4-yl)acrylamide] | 7.8 | 7.7 |  |  |  |  |  | 
7 | Cc1n[nH]c2cc(/C=C/C(=O)N[C@H]3c4ccccc4C[C@@H]3OCC3COC3)ccc12 [Example 66, (E)-3-(3-methyl-1H-indazol-6-yl)-N-((1S,2S)-2-(oxetan-3-ylmethoxy)-2,3-dihydro-1H-inden-1-yl)acrylamide] | 7.3 | 7.2 |  | 36.1 µL/min/1e6 cells | 25.4 µL/min/1e6 cells |  |  | 
8 | Cc1ncc(F)c(C)c1NC(=O)/C=C/c1cc2[nH]nc(C)c2cc1F [Example 107, (2E)-N-(5-fluoro-2,4-dimethylpyridin-3-yl)-3-(5-fluoro-3-methyl-1H-indazol-6-yl)prop-2-enamide] | 8.0 | 8.1 |  |  |  |  |  | 
9 | CO[C@H]1Cc2ccccc2[C@@H]1NC(=O)/C=C/c1ccc2c(C#N)n[nH]c2c1 [Example 74, (E)-3-(3-cyano-1H-indazol-6-yl)-N-((1S,2S)-2-methoxy-2,3-dihydro-1H-inden-1-yl)acrylamide] | 8.0 | 8.0 |  |  |  | 7.5% | 1.2 µM (≈ 0.43 µg/mL) | 
10 | Cc1c(F)cccc1NC(=O)/C=C/c1ccc2c(C)n[nH]c2c1 [Example 37, (E)-N-(3-fluoro-2-methylphenyl)-3-(3-methyl-1H-indazol-6-yl)acrylamide] |  | 8.1 | 2.95 µM (≈ 0.913 µg/mL) | 87.6 µL/min/1e6 cells | 18.9 µL/min/1e6 cells | 5.04% |  | highest activity

Now from value to compound, other results behind:

Row | mPTP Rat brain pIC50 [1] | mPTP Rat liver pIC50 [2] | solubility at 2 h [3, 7] | hepatocyte CLint at 1 µM [4] | hepatocyte CLint at 1 µM [5] | inhibition at 20 min, 1 µM [6] | solubility at 2 h ([3]; aqueous buffer, PBS pH 7.4, 2 hr at 25° C., read-out: Solubility PBS (pH 7.4)) | Compound | activity in the rat liver mitochondria assay (in words) [2]
11 | 8.2 | 8.2 |  |  |  |  |  | Cc1ncc(F)c(C)c1NC(=O)/C=C/c1ccc2c(Cl)n[nH]c2c1 [Example 112, (2E)-3-(3-chloro-1H-indazol-6-yl)-N-(5-fluoro-2,4-dimethylpyridin-3-yl)prop-2-enamide] | 
12 | 6.7 | 7.1 |  | 307 µL/min/1e6 cells | 45 µL/min/1e6 cells |  |  | Cc1c(F)cncc1NC(=O)/C=C/c1ccc2c(C)n[nH]c2c1 [Example 110, (2E)-N-(5-fluoro-4-methylpyridin-3-yl)-3-(3-methyl-1H-indazol-6-yl)prop-2-enamide] | 
13 | 5.7 | 6.2 |  |  |  |  |  | Cc1ncccc1NC(=O)/C=C/c1ccc2c(C)n[nH]c2c1 [Example 115, (2E)-3-(3-methyl-1H-indazol-6-yl)-N-(2-methylpyridin-3-yl)prop-2-enamide] | 
14 | 6.2 | 6.5 |  |  |  |  |  | Cc1ccnc(C)c1NC(=O)/C=C/c1ccc2c(C)n[nH]c2c1 [Example 116, (2E)-N-(2,4-dimethylpyridin-3-yl)-3-(3-methyl-1H-indazol-6-yl)prop-2-enamide] | 
15 | 8.1 | 8.1 |  |  |  |  |  | Cc1ncc(F)c(C)c1NC(=O)/C=C/c1cc2[nH]nc(F)c2cc1F [Example 111, (2E)-3-(3,5-difluoro-1H-indazol-6-yl)-N-(5-fluoro-2,4-dimethylpyridin-3-yl)prop-2-enamide] | 
16 | 7.6 | 7.8 |  |  |  |  |  | Cc1ncc(F)c(C)c1NC(=O)/C=C/c1ccc2c(F)n[nH]c2c1 [Example 108, (2E)-3-(3-fluoro-1H-indazol-6-yl)-N-(5-fluoro-2,4-dimethylpyridin-3-yl)prop-2-enamide] | 
17 | 5.9 | 6.6 | 86 µM (≈ 30.5 µg/mL) |  | 3 µL/min/1e6 cells |  |  | COCc1c(F)cnc(C)c1NC(=O)/C=C/c1ccc2c(C)n[nH]c2c1 [Example 117, (2E)-N-[5-fluoro-4-(methoxymethyl)-2-methylpyridin-3-yl]-3-(3-methyl-1H-indazol-6-yl)prop-2-enamide] | 

— patent US20250179028A1, “ACRYLAMIDE COMPOUNDS” (NRG THERAPEUTICS LTD, priority 2022, published 2025)
